According to ChEMBL document CHEMBL3856181, “Cigarette Smoke-Induced Lung Disease Predisposes to More Severe Infection with Nontypeable Haemophilus influenzae: Protective Effects of Andrographolide” (J Nat Prod, 2016):
The source made the active and inactive calls.

Legend:
Assay type in all cases: functional, organism-based
Mus musculus [1] = assay: Anti-inflammatory activity in cigarette smoke-predisposed BALB/c mouse model of NTHi-inflammation assessed as reduction in macrophage infiltration in BAL fluid at 10 mg/kg, ip administered at 1 and 24 hrs post NTHi-challenge by Wright-staining based differential cell counting method
Mus musculus [2] = assay: Anti-inflammatory activity in cigarette smoke-predisposed BALB/c mouse model of NTHi-inflammation assessed as reduction in neutrophil infiltration in BAL fluid at 10 mg/kg, ip administered at 1 and 24 hrs post NTHi-challenge by Wright-staining based differential cell counting method
Mus musculus [3] = assay: Antiinflammatory activity in cigarette smoke-predisposed BALB/c mouse model of NTHi-inflammation assessed as reduction in lung inflammation score at 10 mg/kg, ip administered at 1 and 24 hrs post NTHi-challenge by hematoxylin and eosin staining-based method
Mus musculus [4] = assay: Activation of Nrf2 in cigarette smoke-predisposed BALB/c mouse model of NTHi-inflammation assessed as increase in lung OH-1 expression at 5 and 10 mg/kg, ip administered post 1 and 24 hrs of NTHi-challenge by RT-PCR method
Mus musculus [5] = assay: Antiinflammatory activity in cigarette smoke-predisposed BALB/c mouse model of NTHi-inflammation assessed as suppression of lung TNF-alpha level at 5 and 10 mg/kg, ip administered post 1 and 24 hrs of NTHi-challenge by ELISA
Mus musculus [6] = assay: Antiinflammatory activity in cigarette smoke-predisposed BALB/c mouse model of NTHi-inflammation assessed as suppression of lung IL-1 beta level at 5 and 10 mg/kg, ip administered post 1 and 24 hrs of NTHi-challenge by ELISA
Mus musculus [7] = assay: Antiinflammatory activity in cigarette smoke-predisposed BALB/c mouse model of NTHi-inflammation assessed as suppression of lung CXCL1/KC level at 5 and 10 mg/kg, ip administered post 1 and 24 hrs of NTHi-challenge by ELISA
[8] = Downregulation of MMP8 gene expression in lungs of cigarette smoke-predisposed BALB/c mouse model of NTHi-inflammation at 5 and 10 mg/kg, ip administered post 1 and 24 hrs of NTHi-challenge by RT-PCR method
[9] = Downregulation of MMP9 gene expression in lungs of cigarette smoke-predisposed BALB/c mouse model of NTHi-inflammation at 5 and 10 mg/kg, ip administered post 1 and 24 hrs of NTHi-challenge by RT-PCR method
Mus musculus [10] = assay: Antiinflammatory activity in cigarette smoke-predisposed BALB/c mouse model of NTHi-inflammation assessed as suppression of lung 8-OHdG level at 5 and 10 mg/kg, ip administered post 1 and 24 hrs of NTHi-challenge by ELISA
[11] = Reduction of Keap1 gene expression in lungs of cigarette smoke-predisposed BALB/c mouse model of NTHi-inflammation at 5 and 10 mg/kg, ip administered post 1 and 24 hrs of NTHi-challenge by RT-PCR method
Mus musculus [12] = assay: Activation of Nrf2 in cigarette smoke-predisposed BALB/c mouse model of NTHi-inflammation assessed as increase in lung GR expression at 5 and 10 mg/kg, ip administered post 1 and 24 hrs of NTHi-challenge by RT-PCR method
Mus musculus [13] = assay: Activation of Nrf2 in cigarette smoke-predisposed BALB/c mouse model of NTHi-inflammation assessed as increase in lung GCLM expression at 5 and 10 mg/kg, ip administered post 1 and 24 hrs of NTHi-challenge by RT-PCR method
Mus musculus [14] = assay: Activation of Nrf2 in cigarette smoke-predisposed BALB/c mouse model of NTHi-inflammation assessed as increase in lung GPx2 expression at 5 and 10 mg/kg, ip administered post 1 and 24 hrs of NTHi-challenge by RT-PCR method
Mus musculus [15] = assay: Activation of Nrf2 in cigarette smoke-predisposed BALB/c mouse model of NTHi-inflammation assessed as increase in lung NQO1 expression at 5 and 10 mg/kg, ip administered post 1 and 24 hrs of NTHi-challenge by RT-PCR method
Mus musculus [16] = assay: Induction of Nrf2 nuclear translocation in cigarette smoke-predisposed BALB/c mouse model of NTHi-inflammation assessed as Nrf2 binding to antioxidant response element consensus DNA binding site at 5 and 10 mg/kg, ip administered post 1 and 24 hrs of NTHi-challenge by ELISA

C=C1CC[C@@H]2[C@](C)(CO)[C@H](O)CC[C@@]2(C)[C@@H]1C/C=C1/C(=O)OC[C@H]1O
active: Activity (Mus musculus [1]) | Activity (Mus musculus [2]) | Activity (Mus musculus [3]) | Activity (Mus musculus [4]) | inhibition (Mus musculus [5]) | inhibition (Mus musculus [6]) | inhibition (Mus musculus [7]) | Activity [8] | Activity [9] | inhibition (Mus musculus [10]) | Activity [11] | Activity (Mus musculus [12]) | Activity (Mus musculus [13]) | Activity (Mus musculus [14]) | Activity (Mus musculus [15]) | Activity (Mus musculus [16])
